Patent US8461299B2, “Peptide capable of binding to immunoglobulin” (MMT Co., Ltd., priority 2007, dated 2013)

Tests used:
[1] = test system: binding between human C1q protein and alkaline phosphatase (ALP)-labeled human immunoglobulin (IgG); experiment: Inhibition of the binding between an immunoglobulin and C1q (C1q spotted on nitrocellulose membrane, ALP-labeled IgG detection); details: peptide 500 μg/ml; 400 ng human C1q per spot; ALP-labeled human IgG diluted 1000-fold; room temperature, one hour
Description: It was investigated whether or not the 9 residue-peptide CKVPGLYYF (SEQ ID NO: 2) considered to be necessary for the binding between C1q and an immunoglobulin (IgG) inhibits the binding between C1q and an immunoglobulin. Peptide (R2) having the amino acid sequence of SEQ ID NO: 2, peptide (R1) having a shorter amino acid sequence than this peptide, PGLYYF (SEQ ID NO: 1), as well as peptide (R3) having the amino acid sequence SGKFTCKVPGLYYFT (SEQ ID NO: 3), peptide (R4) having the amino acid sequence FTCKVPGLYYFTYHA (SEQ ID NO: 4), peptide (R5) having the amino acid sequence STGKFTCKVPGLYYF (SEQ ID NO: 5), and peptide (R6) having the amino acid sequence CKVPGLYYFVYHASH (SEQ ID NO: 7), which contain the amino acid sequence indicated by SEQ ID NO: 2, were prepared by outsourcing to GL Biochem (Shanghai). Each peptide was dissolved in dimethylsulfoxide so as to reach a concentration of 10 mg/ml and stored.
Human C1q protein (manufactured by Carbiochem) was dissolved in 10 mM HEPES, 300 mM NaCl and 40% glycerol (pH 7.2) to prepare a 200 μg/ml human C1q protein solution.
The human C1q protein solution was spotted at 2 μl (400 ng) each onto a 5 mm×15 mm size nitrocellulose membrane (Hybond C; manufactured by Amersham), which was air-dried at room temperature for approximately one hour. The nitrocellulose membrane was soaked in TBS, incubated for 5 minutes, and blocked at room temperature for one hour using TBS (20 mM Tris-HCl pH 7.5, 150 mM NaCl) containing 5% blocking agent (Amersham ECL blocking reagent; manufactured by GE Healthcare). After a slight wash in TBS, the membrane was soaked in 20 μl of a mixed solution of alkaline phosphatase (ALP)-labeled human immunoglobulin (IgG) (manufactured by BECKMAN COULTER) diluted 1000-fold in TBS and each peptide so as to reach a concentration of 500 μg/ml, and let it react at room temperature for one hour. After a slight wash in TTBS solution (TBS added with Tween 20 to a final concentration of 0.05%), the membrane was washed in the same solution for 10 minutes, shaking three times.
After the nitrocellulose membrane was washed slightly in ALP coloring buffer (Tris-HCl containing 100 mM NaCl, 5 mM MgCl2, pH 9.5), it was soaked in 30 μl ALP coloring buffer containing BCIP/NBT solution (manufactured by Promega), and colored at room temperature for 10 minutes. Upon obtaining a staining image, the nitrocellulose membrane was soaked in a sufficient amount of distilled water to wash away the coloring buffer. After washing the nitrocellulose membrane was air-dried and the staining image was captured using Multi Gauge (FUJIFILM). […]

[2] = test system: monoclonal antibody cocktail-induced arthritis mice; experiment: Arthritis inhibitory action on an arthritis-induced mouse-2 (clinical score, general state, body weight); assay type: in vivo; details: 10 mg/kg intraperitoneally twice daily from day 0 for 14 days
Description: The arthritis inhibitory action of the peptides indicated in Example 2 as R1, R2 and R5 was examined using monoclonal antibody cocktail-induced arthritis mice. An arthritis-inducing monoclonal antibody cocktail was intravenously administered at 2 mg/individual, and three days later, LPS was intraperitoneally administered at 50 μg/individual to the mice to induce arthritis. For each peptide, from the day the arthritis-inducing monoclonal antibody cocktail was administered (day 0), continuous administration was carried out at 10 mg/kg each, twice daily, for 14 days, and the arthritis inhibitory action was examined by clinical scoring. Note that the experiments were carried out by similar methods to Example 3 (1).
Based on the animal body weight, the required amount of each peptide was calculated. A solution was prepared with a 0.5% methyl cellulose solution so as to reach a concentration of 1 mg/ml, and was stored refrigerated.
With the day the arthritis-inducing monoclonal antibody cocktail was administered as day 0, the animal's body weight was measured on day 0, 3, 6, 9, 12 and 14 during the test period. General state observation was carried out daily.
The body weight was measured on the day prior to starting administration and randomly assigned with a grouping software so that the average body weight value of each group was approximately the equal. To twenty 7 week-old mice, an arthritis-inducing monoclonal antibody cocktail were intravenously administered at 2 mg/individual on day 0, and LPS was intraperitoneally administered at 50 μg/individual on day 3.
Each peptide solution was intraperitoneally administered twice daily, in the morning and in the afternoon, from day 0. As a control, 0.5% methyl cellulose solution was intraperitoneally administered twice daily from day 0. For administration, a syringe needle (26G, Terumo) and a syringe barrel (1.0 ml capacity, Terumo) were used. The dosage was 10 ml/kg. […]

[3] = test system: Type III allergic (Arthus) reaction-induced rat; experiment: Type III allergic (Arthus) reaction model, Evans blue dye leakage; assay type: in vivo
Description: The test for peptide R1, R2 and R5 using 64 male rats of the Slc:Wistar strain, which were 7 weeks old was carried out in twice, i.e. for each administration method (intraperitoneal administration and tail vein administration). Acclimation was carried out by giving normal solid chow CRF-1 for 9 days or longer. The day prior to administration, the dorsal hair of the animal was shaved, and on the administration day, a solution of OVA+Evans blue dye mix was administered into the tail vein. Each peptide solution was administered, 30 minutes after administration of a solution of OVA+Evans blue dye mix if administered intraperitoneally or 50 minutes after if administered into the tail vein, respectively. Regarding intracutaneous administration of anti-OVA solution, the solution was intradermally administered to the dorsal region of the animal at a dose of 0.1 ml/site, 30 minutes after administration of the test substance in case of intraperitoneal administration or 10 minutes after in case of intravenous administration, to induce locally an Arthus reaction. Four hours after the induction, the animals were euthanized, the blood was removed thoroughly, and then the dorsal skin was removed. The Arthus reaction site on the removed skin was punched out, and the Evans blue dye was extracted from this skin overnight. The amount of dye leaked was quantified by measuring the absorbance for Evans blue dye with a spectrophotometer and using a calibration curve (note that, regarding experimental methods used in Example 4, reference should be made to H. Okamoto, Y. Iwahisa and M. Terasawa: Suppression of the Arthus reaction by Y-24180, a potent and specific antagonist of platelet-activating factor. Agents Actions, 35: 149-158 (1992)).
The predetermined weighed amounts of each peptide (peptides R1, R2 and R5) were dissolved in physiological saline respectively to obtain a 20 mg/ml solution. A 2 mg/ml solution was prepared by diluting 10-fold a 20 mg/mL solutions with physiological saline. 5 mg/ml solutions were prepared by dissolving each peptide in predetermined weighed amounts in physiological saline to obtain preparation solutions.
A solution of OVA+Evans blue dye mix was administered into the tail vein at 2 ml/kg. Each peptide solution was administered, 30 minutes after administration of the solution of OVA+Evans blue dye mix if administered intraperitoneally or 50 minutes after if administered into the tail vein, respectively. Regarding intracutaneous administration of anti-OVA solution, the solution was intradermally administered to the dorsal region of the animal at a dose of 0.1 ml/site, 30 minutes after administration of the test substance in case of intraperitoneal administration or 10 minutes after in case of intravenous administration, to induce locally an Arthus reaction. Intracutaneous administration was such that there were two PBS sites and two ant-OVA solution sites per animal. Four hours after the induction, the animals were euthanized by decapitation under ether anesthesia, the blood was removed thoroughly, and then the dorsal skin was removed. […]
The skin strip that was punched out with a punch was slit at several locations, soaked in 2 ml of dye extraction solution, and shaken and agitated for 10 minutes. […] The amount of dye leaked was calculated from the dye amount calibration curve.
The group mean values (mean)±standard deviation (SD) were calculated for the body weight measurement values and the amounts of dye leaked. […]

[4] = test system: monoclonal antibody cocktail-induced arthritis mice (BALB/c Cr Slc (SPF)); experiment: Arthritis inhibitory action on an arthritis-induced mouse-1 (clinical score); assay type: in vivo
Description: Using monoclonal antibody cocktail-induced arthritis mice (BALB/c Cr Slc (SPF)), the arthritis inhibitory action of the peptide indicated as R5 in Example 2 was examined. Arthritis was induced by intravenous administration of 2 mg/individual of an arthritis-inducing monoclonal antibody cocktail, followed by intraperitoneal administration of 50 μg/individual of Lipopolysaccharide (LPS) three days later. From the day following LPS administration (day 4) until day 14, 10 mg/kg of peptide. R5 was intraperitoneally administered once daily or twice daily. The positive control agent methotrexate was orally administered once daily at 0.1 mg/kg from day 4. The clinical score of the extremities was measured on even days from day 0 to day 14. Under anesthesia, blood was removed with heparin-containing physiological saline, ice-cold 4% paraformaldehyde solution was continuously injected to perfusion-fix the whole body. After perfusion-fixation subsequent, both hind limbs knee joints (the center of the femur and the center of the tibia were cut; skin and muscles were removed) and heel joints (from the center of the tibia to the toe tips) were excised and further immersion-fixed with 4% paraformaldehyde solution overnight (4° C.). Thereafter, both knee and heel joints were transferred to 50 mM PBS (4° C.), then soft x-ray radiography of the heel articulations were taken from two directions (internal side direction and upper side direction).
Based on the animal body weight, the required amount was calculated for the peptide. A peptide solution was prepared with a 0.5% methyl cellulose solution so as to reach a concentration of 1 mg/ml, and the prepared peptide solution was stored refrigerated. […]
With the day the arthritis-inducing monoclonal antibody cocktail was administered as day 0, the animal's body weight was measured on day 0, 3, 6, 9, 12 and 14 during the test period. […]

[5] = intraperitoneal administration, 10 mg/kg or 100 mg/kg
[6] = tail vein administration, 10 mg/kg

CKAPGLYYF (Immunoglobulin binding peptide) [R10]
inhibition of the binding between C1q and an immunoglobulin (IgG) [1]: inhibit

CKVPGLYYF (Immunoglobulin binding peptide) [R2]
arthritis inhibitory action (clinical score) [2]: Arthritis inhibitory action was observed
inhibitory action on immune-complex disease (amount of dye leaked) [3, 5]: clear and sufficient inhibitory action
inhibitory action on immune-complex disease (amount of dye leaked) [3, 6]: clear and sufficient inhibitory action
inhibition of the binding between C1q and an immunoglobulin (IgG) [1]: inhibited

PGLYYF (Immunoglobulin binding peptide) [R1]
arthritis inhibitory action (clinical score) [2]: Arthritis inhibitory action was observed
inhibitory action on immune-complex disease (amount of dye leaked) [3, 5]: clear and sufficient inhibitory action
inhibitory action on immune-complex disease (amount of dye leaked) [3, 6]: clear and sufficient inhibitory action
inhibition of the binding between C1q and an immunoglobulin (IgG) [1]: inhibited

STAKFTCKVPGLYYF (Immunoglobulin binding peptide) [R11]
inhibition of the binding between C1q and an immunoglobulin (IgG) [1]: inhibit

STGKFTCKVPGLYYF (Immunoglobulin binding peptide) [R5]
arthritis inhibitory action (clinical score) [2]: Arthritis inhibitory action was observed
inhibitory action on immune-complex disease (amount of dye leaked) [3, 5]: clear and sufficient inhibitory action
arthritis inhibition (clinical score) ([4]; 10 mg/kg intraperitoneally once daily or twice daily, day 4 until day 14): an effect on arthritis inhibition was observed
difference in effectiveness between once daily administration and twice daily administration ([4]; 10 mg/kg intraperitoneally, day 4 until day 14): no significant difference
level of arthritis inhibition compared with methotrexate ([4]; peptide 10 mg/kg intraperitoneally, methotrexate 0.1 mg/kg orally once daily from day 4): higher than that of methotrexate
